Measured values as given in PMC9731497, “Identification of potent anti-Cryptosporidium new drug leads by screening traditional Chinese medicines” (PLOS Neglected Tropical Diseases, 2022).
Structures can show the parent of a compound that is named as a salt. Where two headings read alike, the source gives them in different places.

Assays:
C. parvum HNJ-1 strain [1] = assay: In vitro C. parvum growth inhibition assay (Sporo-Glo staining, fluorescence microscopy count in infected HCT-8 cells); type: cell-based, Cryptosporidium parvum; conditions: for EC50 / inhibition at 1 µM: Cryptosporidium parvum; for EC50: read-out: EC50 value; for inhibition at 1 µM: read-out: Parasite inhibition (%); for Selectivity index: ratio of CC50 (HCT-8) / EC50 (C. parvum)
Protocol: The primary screening of compounds for C. parvum was performed as follows: HCT-8 cells were seeded in 96-well plates at a density of 2 × 10^4 cells/well and allowed to grow overnight. Before infecting cells, Cryptosporidium oocysts were excysted to sporozoites. 87 compounds were tested against C. parvum at a single concentration of 1 μM. Each compound was tested once. Infected HCT-8 cells and uninfected HCT-8 cells were used as positive and negative controls, respectively, in medium containing 0.1% DMSO. Nitazoxanide was used as a standard comparative drug. In vitro inhibition assays were carried out as previously described. Briefly, oocysts were suspended in 1 ml of 0.1% sodium hypochlorite in PBS, incubated for 5 min at 4°C, centrifuged for 10 min at 3000 rpm, and washed three times in PBS. The oocysts were then suspended in excystation solution consisting of 0.75% sodium taurocholate and 0.25% trypsin dissolved in 0.1 M phosphate buffer (with 93.4 mM K2HPO4 and 6.5 mM KH2PO4; pH 8.0) and incubated at 37°C for 1 h. The oocyst/sporozoite suspensions were then rinsed in 1 x PBS (with 137 mM NaCl, 2.7 mM KCl, 8 mM Na2HPO4, and 2 mM KH2PO4; pH 7.5) once more before being filtered through a 5-μm pore-size PVDF filter (Millipore, Burlington, MA, USA) with 5 ml syringe to remove the oocyst wall. HCT-8 cells were seeded in 96-well plates (Thermo Fisher Scientific Inc., MA, USA) and incubated overnight. The cells were then infected with C. parvum sporozoites (4 ×10^4 sporozoites/well) containing in RPMI-1640 medium for 3 h. After 3h inoculation, the non-infected parasite or debris were washed with new RPMI-1640 media. At this point, in RPMI-1640 medium containing 1 μM library compounds were added. Infected cells were incubated for an additional 45 h. Following incubation, the infected cells were fixed for 10 minutes in ice-cold 100% methanol at room temperature. Plates were then carefully rinsed 3 times with PBS. The parasite infected cells were then blocked with 1% bovine serum albumin (BSA) in PBS for 30 minutes and then stained with Sporo-Glo (an anti-Cryptosporidium polyclonal antibody) (Waterborne Environmental, Inc., VA, USA) protected from light for 1 h at room temperature. Finally, cells were washed twice with 1 x PBS-T (1 x PBS supplemented with 0.01% Tween). A Keyence BZ-II 9000 was used to capture the images (KEYENCE, Osaka, Japan). The plates were imaged with a HS all-in-one fluorescence microscope using a 20 x objective. The image output was imported into Microsoft excel for data organization and analyses. All C. parvum parasite in the well were counted.
For a second investigation, four selective hit compounds were used to determine the half-maximum inhibitory concentration (EC50). The parasites were treated with various doses of compounds (ranging from 0.008–1 μM). HCT-8 cells (2 × 10^4 cells/well) were grown for 24 h before being infected with 4 × 10^4 C. parvum sporozoites in 96-well plates. […] Sporo-Glo was used for C. parvum staining as described above. Fluorescence microscopy with a Keyence BZ-II 9000 imager was used to count all Cryptosporidium in the wells (KEYENCE, Osaka, Japan). EC50 vales were determined by analyzing dose-response curves made by GraphPad Prism (GraphPad Software, CA, USA).

C. parvum HNJ-1 strain [2] = assay: In vivo C. parvum growth inhibition assay (oocyst shedding in feces of infected SCID mice, sugar flotation); design: species or system Cryptosporidium parvum; conditions: for numbers of oocysts discharged in the feces: 50, 25 and 12.5 mg/kg oral, infected SCID mice; for % of oocysts shedding / % reduction in oocysts shedding: initial dose-finding (S1 Table), 1 mouse; for % reduction in oocyst shedding: SCID mice n=3, vs untreated infected control
C. parvum = assay: Histopathological analysis and immunohistochemistry of ileum of C. parvum-infected mice; type: in vivo, Cryptosporidium parvum; design: key to severity of C. parvum infection in ileum, Score: -, no oocysts; 1+, mild focal infection; 2+, moderate multifocal infection; 3+, severe diffuse infection; conditions: for severity of C. parvum infection in ileum, Score: HE and immunohistochemistry, most severe area, day 14, dose not stated; for reduction of oocysts, histopathological and scanning electron microscopy findings: ileum of infected treated mice (S2 Fig)
Protocol: (§1) We performed a histopathological analysis to evaluate the growth inhibitory effects and toxicity of the hit compounds in C. parvum-infected mice. In brief, ileum was collected, fixed in 10% neutral buffered formalin, and paraffin-embedded. Each section was cut to a thickness of 4 μm for hematoxylin and eosin (HE) staining and immunohistochemistry. Immunohistochemistry (IHC) was performed following standard techniques using the Envision+ system (Agilent Technologies, Inc., Santa Clara, CA) and 3,3-diaminobenzidine (DAB)(Dojindo, Kumamoto, Japan). Anti-Toxoplasma gondii (RH strain) rabbit polyclonal IgG (Abcam, Cambridge, UK) was used as the primary antibody. The antibody cross reacts with C. Parvum. To reduce the endogenous peroxidase activity, the sections were incubated with 3% H2O2 for 5 minutes. Sections were incubated with primary antibodies overnight at 4°C. After washing with PBS with Tween 20 (PBST), sections were incubated with Envision+ single polymer solution (Agilent Technologies Inc.) for 30 minutes at room temperature. Sections were counterstained with Mayer’s hematoxylin. The severity of C. parvum infection was evaluated in the most severe area, and scored from—to 3+ (-, no oocysts; 1+, mild focal infection; 2+, moderate multifocal infection; 3+, severe diffuse infection). Sub-effects of drugs (hepatocellular damage) were evaluated for major histological changes in karyomegaly, hepatocellular hypertrophy, and interstitial fibrosis/inflammation. We also checked the organs (liver, heart, lung, kidney, and intestines) alteration at necropsy whether it has abnormal or normal.

[3] = for body weight of treated infected mice: initial dose-finding doses, 11 consecutive days (S1 Fig)
Protocol: The growth inhibitory effect of the hit compounds was assessed in a mouse model infected with C. parvum oocysts. In this experiment, four-week-old female SCID mice (Charles River Laboratories, Shizuoka, Japan) were used. In the infected groups, mice were orally inoculated with 1.0 × 10^5 C. parvum oocysts by using sterile gavage needles. Initially, four compounds were tested at different concentrations to figure out the optimum dosages. Six groups of mice were given oral dosages of 50, 25, and 12.5 mg/kg body weight (BW) of two compounds (alisol-A and alisol-B). […] Bufotalin was given orally at three different doses to the other mouse group: 0.1, 0.05, and 0.025 mg/kg BW. […] The positive control group consisted of infected and untreated mice, whereas the negative control group consisted of noninfected and untreated mice. Treatment began on the third day after infection and lasted until the thirteenth day. The body weight and condition were checked every day, and treatment was given based on the body weight. On days 1, 3, 6, 7, 9, 12, 14, fecal samples were taken. The total number of oocysts per gram was calculated after counting the oocysts in the feces using the sugar flotation method. The treated and untreated mice were euthanized by cervical dislocation on day 14, and a thorough necropsy was performed.

[4] = Host cell viability assay (Cell-Titer Glo)
Protocol: (§2) HCT-8 cells (4 × 10^4 cells/well) 100 μl were seeded in 96-well plates, cultured for 24 h, and then treated for 48 h with different concentrations of hit compounds (10^1, 1, 10^−1, 10^−2, 10^−3, 10^−4 μM). After a 48-h incubation period, equilibrate the 96-well plates in room temperature (RT) for 30 minutes. Then, equal volume of Cell-Titer Glo (Promega) reagent was added to each treated well, the plate was shaken on an orbital shaker for 2 minutes then incubated for 10 minutes at RT. The luminescence was quantified by the GloMax Navigator plate reader (Promega, Japan) and the cell viability was evaluated as directed by the kit manufacturer. The luminescence signal of control wells containing DMSO was set to 100% cell viability. […] Graph Pad Prism 7.0.1 was used to determine CC50 values.

HCT-8 cells = assay: Host cell viability assay (Cell-Titer Glo); conditions: HCT-8 cells, 48 h, 1 μM
Protocol: as §2

[5] = Liver histology (sub-effects of drugs, hepatocellular damage) in treated mice; type: in vivo, SCID mice; conditions: HE stain, infected treated mice (S3 Fig)
Protocol: as §1

[6] = 1 μM, 45 h, C. parvum HNJ-1 strain in HCT-8 cells, first screen
[7] = human, HCT-8 cells, Host cell viability (%), 48 h, 1 μM
[8] = human, Host cell viability (%), HCT-8 cells, 48 h, 1 μM

## C[C@H](C[C@H](O)[C@@H](O)C(C)(C)O)C1=C2C[C@H](O)[C@H]3[C@@]4(C)CCC(=O)C(C)(C)[C@@H]4CC[C@]3(C)[C@@]2(C)CC1 [Alisol-A]
C. parvum HNJ-1 strain [1]; HCT-8, C. parvum HNJ-1, 0.008–1 μM, 45 h, mean of three experiments
  EC50: 123 ± 6.7 nM
C. parvum HNJ-1 strain [1]; [6]
  inhibition at 1 µM: 78.1%
C. parvum HNJ-1 strain [1]
  Selectivity index: 484.4
C. parvum HNJ-1 strain [2]
  numbers of oocysts discharged in the feces: no significant reduction
C. parvum HNJ-1 strain [2]; 12.5 mg/kg BW, 11 days
  % of oocysts shedding: 55.6%
  % reduction in oocysts shedding: 44.4%
C. parvum
  severity of C. parvum infection in ileum, Score: 3+
  reduction of oocysts, histopathological and scanning electron microscopy findings: no notable reduction of oocysts
[3]
  body weight of treated infected mice: not significant
[3]; listed as alisol-A
  body weight of treated infected mice: no significant difference
[3]; oral, at 50 and 25 mg/kg body weight, infected SCID mice
  adverse effects / death of treated mice: died
[4]; human, HCT-8 cells
  CC50 at 48 h: 59600 nM
[4]; [7]
  viability at 48 h, 1 µM: > 95%
HCT-8 cells
  Host cell viability (%): 99.5%

## C[C@H](C[C@H](O)[C@H]1OC1(C)C)C1=C2C[C@H](O)[C@H]3[C@@]4(C)CCC(=O)C(C)(C)[C@@H]4CC[C@]3(C)[C@@]2(C)CC1 [Alisol-B]
C. parvum HNJ-1 strain [1]; HCT-8, 45 h
  EC50: 79.6 ± 13.8 nM
  inhibition at 1 µM: 92.9%
C. parvum HNJ-1 strain [1]
  Selectivity index: 460.6
C. parvum HNJ-1 strain [2]
  numbers of oocysts discharged in the feces: no significant reduction
C. parvum HNJ-1 strain [2]; 12.5 mg/kg BW, 11 days
  % of oocysts shedding: 61.3%
  % reduction in oocysts shedding: 38.7%
C. parvum
  severity of C. parvum infection in ileum, Score: 2+
  reduction of oocysts, histopathological and scanning electron microscopy findings: no notable reduction of oocysts
[3]; mouse, in vivo
  adverse effects / death of treated mice: died
[4]; human
  CC50 at 48 h: 36700 nM
[4]; [8]
  viability at 48 h, 1 µM: > 95%
HCT-8 cells
  Host cell viability (%): 97.6%

## CN1[C@@H]2CC[C@H]1C[C@@H](OC(=O)C(CO)c1ccccc1)C2 (stereo partly drawn) [Atropine sulfate, reference compound]
C. parvum HNJ-1 strain [1]; HCT-8, 45 h
  EC50: 254 ± 30.3 nM
  inhibition at 1 µM: 72.3%
C. parvum HNJ-1 strain [2]; 50 mg/kg BW oral, 11 days, SCID mice n=3, mean of days 3, 6, 7, 9, 12, 14
  No. of oocysts, Mean: 96.6
C. parvum HNJ-1 strain [2]; 50 mg/kg BW oral, 11 days
  % reduction in oocyst shedding: 56.2%
C. parvum HNJ-1 strain [2]; 100 mg/kg BW oral, 11 days, SCID mice n=3, mean of days 3, 6, 7, 9, 12, 14
  No. of oocysts, Mean: 91.1
C. parvum HNJ-1 strain [2]; 100 mg/kg BW oral, 11 days
  % reduction in oocyst shedding: 58.7%
C. parvum HNJ-1 strain [2]; 200 mg/kg BW oral, 11 days (day 3–13 p.i.), SCID mice n=3, mean of oocysts shed on days 3, 6, 7, 9, 12, 14
  No. of oocysts, Mean: 71.1
C. parvum HNJ-1 strain [2]; 200 mg/kg BW oral, 11 days
  % reduction in oocyst shedding: 67.8%
C. parvum HNJ-1 strain [2]; 25 mg/kg BW, 11 days
  % of oocysts shedding: 75.2%
  % reduction in oocysts shedding: 24.8%
C. parvum HNJ-1 strain [2]; 50 mg/kg BW, 11 days
  % reduction in oocysts shedding: 50.9%
C. parvum HNJ-1 strain [2]; 100 mg/kg BW, 11 days
  % of oocysts shedding: 45.1%
  % reduction in oocysts shedding: 54.9%
C. parvum
  severity of C. parvum infection in ileum, Score: 2+
[3]
  body weight of treated infected mice: not significant
[5]
  histological findings in liver: inflammation

## CC(=O)O[C@H]1[C@H]2O[C@]23[C@@H]2CC[C@]4(O)C[C@@H](O)CC[C@]4(C)[C@H]2CC[C@]3(C)[C@H]1c1ccc(=O)oc1 [Cinobufotalin]
C. parvum HNJ-1 strain [1]; HCT-8, 45 h
  inhibition at 1 µM: 70.7%
[4]; [8]
  viability at 48 h, 1 µM: 97.8%

## COc1cc(CNC(=O)CCCCCCC(C)C)ccc1O [Dihydrocapsaicin]
C. parvum HNJ-1 strain [1]; [6]
  inhibition at 1 µM: 70.8%
[4]; [7]
  viability at 48 h, 1 µM: 98.4%

## CC(C)=CCC[C@](C)(O[C@@H]1O[C@H](CO)[C@@H](O)[C@H](O)[C@H]1O)[C@H]1CC[C@]2(C)[C@@H]1[C@H](O)C[C@@H]1[C@@]3(C)CC[C@H](O)C(C)(C)[C@@H]3[C@@H](O[C@@H]3O[C@H](CO)[C@@H](O)[C@H](O)[C@H]3O[C@@H]3O[C@@H](C)[C@H](O)[C@@H](O)[C@H]3O)C[C@]12C [Ginsenoside-Re]
C. parvum HNJ-1 strain [1]; [6]
  inhibition at 1 µM: 71.2%
[4]; [7]
  viability at 48 h, 1 µM: 98.7%

## CC(C)=CCC[C@](C)(O[C@@H]1O[C@H](CO)[C@@H](O)[C@H](O)[C@H]1O)[C@H]1CC[C@]2(C)[C@@H]1[C@H](O)C[C@@H]1[C@@]3(C)CC[C@H](O)C(C)(C)[C@@H]3[C@@H](O[C@@H]3O[C@H](CO)[C@@H](O)[C@H](O)[C@H]3O)C[C@]12C [Ginsenoside-Rg1]
C. parvum HNJ-1 strain [1]; [6]
  inhibition at 1 µM: 67.9%
[4]; [7]
  viability at 48 h, 1 µM: 99.1%

## CC(C)=CC[C@@H](O)C1=CC(=O)c2c(O)ccc(O)c2C1=O [Shikonin]
C. parvum HNJ-1 strain [1]; HCT-8, 45 h
  inhibition at 1 µM: 66.2%
